According to patent US9856511B2, “Protease deubiquitinating inhibitor screening” (priority 2011, dated 2018):

Key:
chaperone genes = assay: Microarray expression of chaperone genes after b-AP15 treatment; format: cell-based; conditions: b-AP15 vs vehicle
Protocol: The microarray based gene expression analysis and the Connectivity Map (CMAP) analysis was performed as previously described (40). Briefly, MCF7 cells were exposed to b-AP15 (1 μM, 6 h) or vehicle (0.1% DMSO, 6 h). RNA was isolated (RNeasy miniprep kit, Qiagen) followed by quality control, labelling and hybridization to Genome U133 Plus 2.0 arrays (Affymetrix Inc). Raw data was normalized using Mas5 (Affymetrix Inc.) and rank ordered. For selection of the 30 most induced (up tags) and the 30 most suppressed (down tags) transcripts the following criteria were used: Up tags, present call and expression over 300 arbitrary in the b-AP15 experiment; Down tags, present call after both b-AP15 and vehicle treatment, and expression over 300 arbitrary units in the vehicle experiment. For CMAP compatibility only tags (i.e. probes) present on HG U133A were used. Raw and normalized expression data have been deposited at Gene Expression Omnibus (http://www.ncbi.nlm.nih.gov/geo/) with accession number GSE24150.
Expression of chaperone genes observed in bAP15-treated cells (Table 1) is indicative of induction of a proteotoxic response.

C1498 AML cells = assay: C1498 AML model in C57BL/6J mice, histopathology of liver and ovary; format: in vivo; conditions: 5 mg/kg i.p. for 7 days
Protocol: Animal experiments were conducted in full accordance with Swedish governmental statutory regulations on animal welfare under permission from local ethical committees. Animals were housed at a max of five per cage and provided with sterile water and food ad libitum. All mice were monitored and weighed daily. For the head and neck carcinoma model a 100-μl cell suspension containing 1×10^6 FaDu cells was injected subcutaneously into the right rear flank of the animals. After injection, tumor growth was measured daily with calipers and the tumor volume calculated by the formula […]. When tumors had grown to a size of approximately 200 mm^3 (Day 0) mice were randomized to receive either vehicle (n=10) or b-AP15 5 mg/kg^−1 by subcutaneous injection s.c. (n=15) daily. […] Nineteen days after malignant cell injection all of the mice were killed and histopathological manifestations of liver, ovary (target organs for this model of tumor) were evaluated and compared between groups. […]
SCID mice bearing FaDu human tumor xenografts were randomized at tumor take (200 mm^3) and treated by daily subcutaneous injection with either vehicle (n=10) or 5 mg kg^−1 b-AP15 (n=15) for 10 days. […] Mice were treated with vehicle (n=6) or 5 mg kg^−1 b-AP15 (n=6) 4-5 times weekly for 3 weeks and monitored for tumor onset (log-rank, P=0.0136, hazard ratio=7.9). […]

Structure (SMILES): C=CC(=O)N1C/C(=C\c2ccc([N+](=O)[O-])cc2)C(=O)/C(=C/c2ccc([N+](=O)[O-])cc2)C1 [b-AP15]
- Fold change HSPA6 (chaperone genes; probe set 117_at): 725
- Fold change DNAJB1 (chaperone genes; probe set 200666_s_at): 6
- Fold change HSPA1A (chaperone genes; probe set 200800_s_at): 4
- Fold change DNAJA1 (chaperone genes; probe set 200880_at): 4
- Fold change HSPA1B (chaperone genes; probe set 202581_at): 5
- Fold change DNAJB9 (chaperone genes; probe set 202843_at): 4
- Fold change DNAJB4 (chaperone genes; probe set 203810_at): 16
- Fold change DNAJB4 (chaperone genes; probe set 203811_s_at): 5
- Fold change HSPA4L (chaperone genes; probe set 205543_at): 13
- Fold change HSPH1 (chaperone genes; probe set 206976_s_at): 5
- Fold change HSPA4 (chaperone genes; probe set 211016_x_at): 4
- Fold change DNAJA4 (chaperone genes; probe set 225061_at): 30
- Fold change HSPD1 (chaperone genes; probe set 241716_at): 6
- AML infiltration in liver and ovary (C1498 AML cells): few infiltrated blasts and normal morphology
